These results are taken from US20170101684A1, “METHOD FOR DIAGNOSING AND TREATING MULTIPLE MYELOMA” (Erasmus University Medical Center Rotterdam, priority 2014, published 2017).

In test [1] the test system is MM patients with amp1q chromosomal aberration. Kind of test: Overall survival (Kaplan Meier) of MM patients with amp1q by classical FISH, PAD versus VAD. It is filed as in vivo, human. The settings on record: MM patients with an amp1q chromosomal aberration. From the text: FIG. 1: Kaplan Meier curve showing 60 MM patients (see Table 2) identified as having an additional copy of chromosome 1q (amp1q) using classical FISH analysis. […] Upper line: amp1q cases treated with PAD; lower line: amp1q cases treated with VAD. Hazard Ratio=3.59, p=0.0037.
FIG. 1 provides a Kaplan-Meier curve wherein the top line represents amp1q cases treated with Bortezomib (a proteasome inhibitor), Adriamycin and Dexamethasone (PAD), and the bottom line represents amp1q cases treated with a conventional therapy (Vincristine Adriamycin Dexamethasone or VAD). A Hazard Ratio of 3.59 (p=0.0037) was found. It was concluded that MM patients with amp1q may be preferentially treated with a proteasome inhibitor such as Bortezomib since that provides these patients with a better life expectancy.
FISH analysis was performed in 304 patients. In nonpurified plasma cell samples (n=125), at least 200 interphase nuclei per sample were analyzed by the use of epi-fluorescence microscopy and image analysis software. Within several cases, a preceding analysis of selected myeloma cells was determined by immunoglobulin light chain counterstaining or morphology. In CD138-purified PC samples (n=179), 100 nuclei were evaluated by the use of an epifluorescence microscope (Leica Microsystems). […]

Test [2] deals with MM subjects without the amp1q chromosomal aberration. The experiment in a line: Response of MM patients without amp1q to proteasome inhibitor. It is filed as in vivo, human. From the text:
Methods for determining whether a subject with MM has an amp1q chromosomal aberration are known in the art, and any such methods may be used in aspects of this disclosure, although preferred embodiments will be disclosed herein below.

Take `CC(C)C[C@H](NC(=O)[C@H](Cc1ccccc1)NC(=O)c1cnccn1)B(O)O` [Bortezomib]: the Response to treatment result was “respond well” in test [1] and “do not experience this advantageous response” in test [2].
